The assay deals with T1, human NOX4 (Homo sapiens, UniProt Q9NPH5).
T1 construct: expressed in transfected cells; membrane fraction used
T1 sequence (Q9NPH5 1-578): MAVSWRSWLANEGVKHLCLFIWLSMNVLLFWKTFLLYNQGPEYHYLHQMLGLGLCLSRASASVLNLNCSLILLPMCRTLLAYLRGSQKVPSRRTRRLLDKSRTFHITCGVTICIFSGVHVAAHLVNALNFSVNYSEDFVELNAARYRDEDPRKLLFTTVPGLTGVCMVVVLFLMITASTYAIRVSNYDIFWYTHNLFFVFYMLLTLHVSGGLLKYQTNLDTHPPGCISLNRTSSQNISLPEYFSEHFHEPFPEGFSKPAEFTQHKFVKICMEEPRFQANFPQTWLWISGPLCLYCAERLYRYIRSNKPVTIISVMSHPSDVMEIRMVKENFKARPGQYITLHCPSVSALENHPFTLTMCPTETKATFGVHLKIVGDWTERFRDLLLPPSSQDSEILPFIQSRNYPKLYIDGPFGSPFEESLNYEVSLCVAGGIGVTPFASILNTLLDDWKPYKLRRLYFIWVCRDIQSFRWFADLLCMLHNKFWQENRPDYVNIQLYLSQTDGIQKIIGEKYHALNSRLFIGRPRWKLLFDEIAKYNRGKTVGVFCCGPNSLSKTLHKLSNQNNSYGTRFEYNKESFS
T1 sequence (P13498 1-195 partner): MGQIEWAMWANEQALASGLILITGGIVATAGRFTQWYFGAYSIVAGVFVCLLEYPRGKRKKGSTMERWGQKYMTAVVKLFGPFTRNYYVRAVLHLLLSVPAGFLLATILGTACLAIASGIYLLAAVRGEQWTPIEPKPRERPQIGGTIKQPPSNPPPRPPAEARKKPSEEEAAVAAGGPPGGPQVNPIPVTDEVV
In words: Cell free membrane based in vitro NOX4 assay: H2O2 production by membranes expressing human NOX4, measured with Amplex Red. Type of assay: biochemical. The conditions noted are these: for inhibition at 1 µM: 1.0 μM compound, read-out: Percentage inhibition at 1.0 μM; for inhibition at 10 µM: 10.0 μM compound, read-out: Percentage inhibition at 10.0 μM; for pIC50: class symbols. A digest of the protocol:
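Membranes from HEK cells stably overexpressing human NOX4 were preincubated 20 min with inhibitor in pH 7.4 HEPES buffer containing HRP and Amplex Red, then NADPH was added. H2O2 was followed for 10 min by fluorescence (ex 544/em 590 nm). IC50 from nonlinear regression of % maximal uninhibited response.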

pIC50: −log10 of the molar value.

As to `CCn1nc(C)c2c(=O)c(O)c(-c3cc(CNC(=O)C(C)(C)C)ccc3F)[nH]c21` [Example 138, N-(3-(1-Ethyl-5-hydroxy-3-methyl-4-oxo-4,7-dihydro-1H-pyrazolo[3,4-b]pyridin-6-yl)-4-fluorobenzyl)pivalamide], the inhibition at 1 µM stood at 92.6%, the inhibition at 10 µM worked out at 85% and the pIC50 was < 6.82.

Regarding `Cc1nn(-c2ccc(F)cc2Cl)c2[nH]c(-c3c(F)cccc3F)c(O)c(=O)c12` [Example 139, 1-(2-Chloro-4-fluorophenyl)-6-(2,6-difluorophenyl)-5-hydroxy-3-methyl-1H-pyrazolo[3,4-b]pyridin-4(7H)-one], the inhibition at 1 µM was determined as 99%, the inhibition at 10 µM was determined as 100% and the pIC50 was 7.00 to 7.30.

Consider `CCc1nn(C2CC2)c2[nH]c(-c3c(F)cccc3F)c(O)c(=O)c12` [Example 140, 1-Cyclopropyl-6-(2,6-difluorophenyl)-3-ethyl-5-hydroxy-1H-pyrazolo[3,4-b]pyridin-4(7H)-one], for which the inhibition at 1 µM was found to be 100%, the inhibition at 10 µM came to 100% and the pIC50 is 7.00 to 7.30.

As for `Cc1nn(-c2ccc(F)cc2Cl)c2[nH]c(-c3ccccc3Cl)c(O)c(=O)c12` [Example 141, 1-(2-Chloro-4-fluorophenyl)-6-(2-chlorophenyl)-5-hydroxy-3-methyl-1H-pyrazolo[3,4-b]pyridin-4(7H)-one], the inhibition at 1 µM is 77.9%, the inhibition at 10 µM was 95.1% and the pIC50 was < 6.82.

As for `Cc1nn(C2CCOCC2)c2[nH]c(-c3cc(CNC(=O)C(C)(C)C)ccc3Cl)c(O)c(=O)c12` [Example 142, N-(4-Chloro-3-(5-hydroxy-3-methyl-4-oxo-1-(tetrahydro-2H-pyran-4-yl)-4,7-dihydro-1H-pyrazolo[3,4-b]pyridin-6-yl)benzyl)pivalamide], the inhibition at 1 µM stood at 80.4%, the inhibition at 10 µM came out at 69.9% and the pIC50 is < 6.82.

As to `CCn1nc(C)c2c(=O)c(O)c(-c3ccccc3C(F)(F)F)[nH]c21` [Example 143, 1-Ethyl-5-hydroxy-3-methyl-6-(2-(trifluoromethyl)phenyl)-1H-pyrazolo[3,4-b]pyridin-4(7H)-one], the inhibition at 1 µM is 73.1% and the pIC50 was 6.82 to 7.00.

On to `Cc1nn(C2CCC2)c2[nH]c(-c3ccccc3Cl)c(O)c(=O)c12` [Example 144, 6-(2-Chlorophenyl)-1-cyclobutyl-5-hydroxy-3-methyl-1H-pyrazolo[3,4-b]pyridin-4(7H)-one], for which the inhibition at 1 µM was determined as 83.6%, the inhibition at 10 µM was 63.8% and the pIC50 was 7.00 to 7.30.

As to `Cn1nc(Cc2ccccc2Cl)c2c(=O)c(O)c(-c3ccccc3Cl)[nH]c21` [Example 145, 3-(2-Chlorobenzyl)-6-(2-chlorophenyl)-5-hydroxy-1-methyl-1H-pyrazolo[3,4-b]pyridin-4(7H)-one], the inhibition at 1 µM was found to be 90%, the inhibition at 10 µM came out at 93.2% and the pIC50 is < 6.82.

For the molecule `CCc1nn(CCN2CCOCC2)c2[nH]c(-c3ccccc3Cl)c(O)c(=O)c12` [Example 146, 6-(2-Chlorophenyl)-3-ethyl-5-hydroxy-1-(2-morpholinoethyl)-1H-pyrazolo[3,4-b]pyridin-4(7H)-one], the inhibition at 1 µM was 94%, the inhibition at 10 µM is 81.8% and the pIC50 is 6.82 to 7.00.

Take `Cc1nn(CCCN2CCOCC2)c2[nH]c(-c3ccccc3Cl)c(O)c(=O)c12` [Example 147, 6-(2-Chlorophenyl)-5-hydroxy-3-methyl-1-(3-morpholinopropyl)-1H-pyrazolo[3,4-b]pyridin-4(7H)-one]: the inhibition at 1 µM turned out to be 94.3%, the inhibition at 10 µM stood at 64.9% and the pIC50 is 6.82 to 7.00.

As to `Cc1nn(CCN2C[C@@H](C)O[C@@H](C)C2)c2[nH]c(-c3ccccc3Cl)c(O)c(=O)c12` [Example 148, 6-(2-Chlorophenyl)-1-(2-((2S,6R)-2,6-dimethylmorpholino)ethyl)-5-hydroxy-3-methyl-1H-pyrazolo[3,4-b]pyridin-4(7H)-one], the inhibition at 1 µM is 94.3%, the inhibition at 10 µM is 85.3% and the pIC50 is < 6.82.

As for `Cc1nn(CCN2CCCCC2)c2[nH]c(-c3ccccc3Cl)c(O)c(=O)c12` [Example 149, 6-(2-Chlorophenyl)-5-hydroxy-3-methyl-1-(2-(piperidin-1-yl)ethyl)-1H-pyrazolo[3,4-b]pyridin-4(7H)-one], the inhibition at 1 µM is 79.1%, the inhibition at 10 µM is 74.7% and the pIC50 is < 6.82.

As to `O=c1c(O)c(-c2ccccc2Cl)[nH]c2c1c(C(F)(F)F)nn2CCN1CCOCC1` [Example 150, 6-(2-Chlorophenyl)-5-hydroxy-1-(2-morpholinoethyl)-3-(trifluoromethyl)-1H-pyrazolo[3,4-b]pyridin-4(7H)-one], the inhibition at 1 µM stood at 67.1%, the inhibition at 10 µM turned out to be 84.4% and the pIC50 was < 6.82.

For `Cc1nn(CCN2CCCC2)c2[nH]c(-c3ccccc3Cl)c(O)c(=O)c12` [Example 151, 6-(2-Chlorophenyl)-5-hydroxy-3-methyl-1-(2-(pyrrolidin-1-yl)ethyl)-1H-pyrazolo[3,4-b]pyridin-4(7H)-one], the inhibition at 1 µM worked out at 81.1%, the inhibition at 10 µM was 76.2% and the pIC50 is < 6.82.

In the case of `Cc1nn(CCN2CCOCC2)c2[nH]c(-c3ccccc3C(F)(F)F)c(O)c(=O)c12` [Example 152, 5-Hydroxy-3-methyl-1-(2-morpholinoethyl)-6-(2-(trifluoromethyl)phenyl)-1H-pyrazolo[3,4-b]pyridin-4(7H)-one], the inhibition at 1 µM turned out to be 93.5%, the inhibition at 10 µM is 89.9% and the pIC50 was 6.82 to 7.00.

For `Cc1nn(CCN2CCOCC2)c2[nH]c(-c3cccc(C(F)(F)F)c3F)c(O)c(=O)c12` [Example 153, 6-(2-fluoro-3-(trifluoromethyl)phenyl)-5-hydroxy-3-methyl-1-(2-morpholinoethyl)-1H-pyrazolo[3,4-b]pyridin-4(7H)-one], the inhibition at 1 µM was determined as 100%, the inhibition at 10 µM came to 93% and the pIC50 was < 6.82.

For the molecule `CN(C)CCn1nc(C(F)(F)F)c2c(=O)c(O)c(-c3ccccc3Cl)[nH]c21` [Example 154, 6-(2-chlorophenyl)-1-(2-(dimethylamino)ethyl)-5-hydroxy-3-(trifluoromethyl)-1H-pyrazolo[3,4-b]pyridin-4(7H)-one], the inhibition at 1 µM came to 99.6%, the inhibition at 10 µM was found to be 100% and the negative logarithm of the IC50 (pIC50) is < 6.82.

Turning to `Cc1nn(CCN2CCN(C)CC2)c2[nH]c(-c3ccccc3Cl)c(O)c(=O)c12` [Example 155, 6-(2-chlorophenyl)-5-hydroxy-3-methyl-1-(2-(4-methylpiperazin-1-yl)ethyl)-1H-pyrazolo[3,4-b]pyridin-4(7H)-one], the inhibition at 1 µM came out at 100%, the inhibition at 10 µM was 93.3% and the pIC50 was > 7.30.

Take `CCc1nn(CCN2CCOCC2)c2[nH]c(-c3c(F)cccc3F)c(O)c(=O)c12` [Example 156, 6-(2,6-difluorophenyl)-3-ethyl-5-hydroxy-1-(2-morpholinoethyl)-1H-pyrazolo[3,4-b]pyridin-4(7H)-one]: the inhibition at 1 µM was 97.4%, the inhibition at 10 µM amounted to 100% and the pIC50 is > 7.30.

As for `CCc1nn(CCn2cccn2)c2[nH]c(-c3ccccc3Cl)c(O)c(=O)c12` [Example 157, 1-(2-(1H-pyrazol-1-yl)ethyl)-6-(2-chlorophenyl)-3-ethyl-5-hydroxy-1H-pyrazolo[3,4-b]pyridin-4(7H)-one], the inhibition at 1 µM came out at 95.2%, the inhibition at 10 µM stood at 98.6% and the pIC50 is 7.00 to 7.30.

As for `CCc1nn(CCn2cccn2)c2[nH]c(-c3c(F)cccc3F)c(O)c(=O)c12` [Example 158, 1-(2-(1H-pyrazol-1-yl)ethyl)-6-(2,6-difluorophenyl)-3-ethyl-5-hydroxy-1H-pyrazolo[3,4-b]pyridin-4(7H)-one], the inhibition at 1 µM was 100%, the inhibition at 10 µM came to 100% and the pIC50 was > 7.30.

For the molecule `CCc1nn(C)c2[nH]c(-c3ccc(F)c(C(F)(F)F)c3)c(O)c(=O)c12` [Example 159, 3-Ethyl-6-(4-fluoro-3-(trifluoromethyl)phenyl)-5-hydroxy-1-methyl-1H-pyrazolo[3,4-b]pyridine-4(7H)-one], the inhibition at 1 µM was 71.9% and the negative-log IC50 (pIC50) is < 6.82.

Regarding `CCc1nn(C)c2[nH]c(-c3cccc(C(F)(F)F)c3F)c(O)c(=O)c12` [Example 160, 3-Ethyl-6-(2-fluoro-3-(trifluoromethyl)phenyl)-5-hydroxy-1-methyl-1H-pyrazolo[3,4-b]pyridine-4(7H)-one], the inhibition at 1 µM is 80.7%, the inhibition at 10 µM amounted to 68.9% and the pIC50 is < 6.82.

For orientation: inhibition means the drop in the measured response relative to a control, in per cent. In general, pIC50 refers to the negative decadic logarithm of the IC50, by convention in mol/L. A high value points to a small IC50.
